Legend:
Assay in all cases: in vitro susceptibility, MIC by mini broth dilution
Type in all cases: cell-based
[1] = system: Staphylococcus aureus CVCC26003; settings: strain CVCC26003
Description: (§1) in vitro tests of susceptibility of the compounds according to the present disclosure against bacterial strains commonly used in laboratories. In accordance with the Performance Standards for Antimicrobial Disk Susceptibility Tests: Approved Standard published by the US National Committee for Clinical Laboratory Standards, the antibacterial activities of compounds prepared according to examples 5 to 187 were tested. The MICs (minimum inhibitory concentration) of the medicaments prepared according to the examples on the following bacterial strains were measured through mini broth dilution technique. Staphylococcus aureus CVCC26003, Streptococcus equines CVCC556. Actinobacillus pleuropneumoniae CVCC262, Haemophilus parasuis, and Pasteurella multocida CVCC399, which were purchased from the Control Institute of Veterinary Bioproducts and Pharmaceuticals, China. 4.1.1 Culture Medium for Staphylococcus aureus CVCC26003 Liquid culture medium: CAMHB. […] Solid culture medium: NINA prepared according to the specification of the final product. The strains were taken out of a refrigerator at −20° C. to be revived, and were spreaded by streaking on the solid culture medium with an inoculating loop. The inoculated culture medium was cultured at 35° C. in a constant temperature incubator for 20 h. […] were selected from a well-grown culture plate and streaked on the solid culture medium. The inoculated culture medium was cultured at 35° C. in the constant temperature incubator for 20 h. […] A 96-well plate was used, and 100 μl of DMSO was added into each of wells 2 to 11, and 200 μl of ready-prepared medicament solution was added into the 1st well, 100 μl of the medicament solution was extracted from the 1st well and added into the 2nd well. Double dilution was performed until the 11th well, thereby forming 11 gradients. In this case, compound of parent plate was prepared. 3 μl of double diluted medicament solution was extracted with a 12-channel pipettor and added into wells 1-11 of a new disposable 96-well culture plate. The 12th well thereof is a control well. For each medicament, there are two adjacent rows which are parallel. The transferred compound plate was reserved for later use. […] The dilution ratio was recorded, and the bacterial liquid for the tests was diluted according to the recorded dilution ratio. Subsequently, the bacterial suspension and the liquid culture medium were diluted in the proportion of 1:200. The diluted solution was reserved for later use.

[2] = system: Actinobacillus pleuropneumoniae CVCC262; settings: strain CVCC262
Description: as §1, with “China. 4.1.2” for “China. 4.1.1”, “Culture Media” for “Culture Medium”, “for the Rest Four Bacterial Strains.” for “for Staphylococcus aureus CVCC26003”, “medium:” for “medium: CAMHB.”, “medium: […]” for “medium: NINA prepared according to the specification of the final product.”

Haemophilus parasuis = system: Haemophilus parasuis
Description: as §1, with “China. 4.1.2” for “China. 4.1.1”, “Culture Media” for “Culture Medium”, “for the Rest Four Bacterial Strains.” for “for Staphylococcus aureus CVCC26003”, “medium:” for “medium: CAMHB.”, “medium: […]” for “medium: NINA prepared according to the specification of the final product.”

[3] = system: Pasteurella multocida CVCC399; settings: strain CVCC399
Description: as §1, with “China. 4.1.2” for “China. 4.1.1”, “Culture Media” for “Culture Medium”, “for the Rest Four Bacterial Strains.” for “for Staphylococcus aureus CVCC26003”, “medium:” for “medium: CAMHB.”, “medium: […]” for “medium: NINA prepared according to the specification of the final product.”

[4] = system: Streptococcus equines CVCC556; settings: strain CVCC556
Description: as §1, with “China. 4.1.2” for “China. 4.1.1”, “Culture Media” for “Culture Medium”, “for the Rest Four Bacterial Strains.” for “for Staphylococcus aureus CVCC26003”, “medium:” for “medium: CAMHB.”, “medium: […]” for “medium: NINA prepared according to the specification of the final product.”

Row | SMILES | MIC values, Staphylococcus aureus CVCC26003 [1] | MIC values, Actinobacillus pleuropneumoniae CVCC262 [2] | MIC values, Haemophilus parasuis (Haemophilus parasuis) | MIC values, Pasteurella multocida CVCC399 [3] | MIC values, Streptococcus equines CVCC556 [4]
1 | CCCCCNC[C@]1(O)[C@H](C)O[C@@H](O[C@H]2[C@H](C)[C@@H](O[C@@H]3O[C@H](C)C[C@H](N(C)C)[C@H]3O)[C@](C)(O)C[C@@H](C)N(CCC)C[C@H](C)[C@@H](O)[C@](C)(O)[C@@H](CC)OC(=O)[C@@H]2C)C[C@@]1(C)OC [syzx-147] | 0.25 ug/mi | 0.25 ug/mi | 0.25 ug/mi | 0.5 ug/mi | 0.25 ug/mi
2 | CCCN1C[C@H](C)[C@@H](O)[C@](C)(O)[C@@H](CC)OC(=O)[C@H](C)[C@@H](O[C@H]2C[C@@](C)(OC)[C@](O)(CN(CC)CC)[C@H](C)O2)[C@H](C)[C@@H](O[C@@H]2O[C@H](C)C[C@H](N(C)C)[C@H]2O)[C@](C)(O)C[C@H]1C [syzx-103] | 0.25 ug/mi | 0,25 ug/mi | 0.25 ug/mi | 1 ug/mi | 0.25 ug/mi
3 | CC[C@H]1OC(=O)[C@H](C)[C@@H](O[C@H]2C[C@@](C)(OC)[C@](O)(CNc3ccc(Cl)nn3)[C@H](C)O2)[C@H](C)[C@@H](O[C@@H]2O[C@H](C)C[C@H](N(C)C)[C@H]2O)[C@](C)(O)C[C@@H](C)NC[C@H](C)[C@@H](O)[C@]1(C)O [syzx-32, (2R,3S,4R,5S,8R,10R,11R,12S,13S,14R)-13-[(2,6-dideoxy-3-C-methyl-3-O-methyl-4-C-[(6-chloro-pyridazin-3-yl-amino)-methyl]-α-L-ribopyranosyl)oxy]-2-ethyl-3,4,10-trihydroxy-3,5,8,10,12,14-hexamethyl-11-[[3,4,6-trideoxy-3-(dimethylamino)-β-D-xylo-hexopyranosy]oxy]-1-oxa-7-azacyclopentadecan-15-one] | 0.5 ug/mi | 0.5 ug/mi | 0.25 ug/mi | 1 ug/mi | 0.25 ug/mi
4 | CCCN1C[C@H](C)[C@@H](O)[C@](C)(O)[C@@H](CC)OC(=O)[C@H](C)[C@@H](O[C@H]2C[C@@](C)(OC)[C@](O)(CNC(C)C)[C@H](C)O2)[C@H](C)[C@@H](O[C@@H]2O[C@H](C)C[C@H](N(C)C)[C@H]2O)[C@](C)(O)C[C@H]1C [syzx-111] | 0.25 ug/mi | 0.25 ug/mi | 0.25 ug/mi | 0.5 ug/mi | 0.25 ug/mi
5 | CCCN1C[C@H](C)[C@@H](O)[C@](C)(O)[C@@H](CC)OC(=O)[C@H](C)[C@@H](O[C@H]2C[C@@](C)(OC)[C@](O)(CNCc3ccc(F)c(F)c3)[C@H](C)O2)[C@H](C)[C@@H](O[C@@H]2O[C@H](C)C[C@H](N(C)C)[C@H]2O)[C@](C)(O)C[C@H]1C [syzx-154] | 0.25 ug/mi | 0.25 ug/mi | 0.25 ug/mi | 0.5 ug/mi | 0.5 ug/mi
6 | CC[C@H]1OC(=O)[C@H](C)[C@@H](O[C@H]2C[C@@](C)(OC)[C@](O)(CNCCCN3CCOCC3)[C@H](C)O2)[C@H](C)[C@@H](O[C@@H]2O[C@H](C)C[C@H](N(C)C)[C@H]2O)[C@](C)(O)C[C@@H](C)NC[C@H](C)[C@@H](O)[C@]1(C)O [syzx-69, (2R,3S,4R,5S,8R,10R,11R,12S,13S,14R)-13-[(2,6-dideoxy-3-C-methyl-3-O-methyl-4-C-[(3-morpholinyl-propyl-amino)-methyl]-α-L-ribopyranosyl)oxy]-2-ethyl-3,4,10-trihydroxy-3,5,8,10,12,14-hexamethyl-11-[[3,4,6-trideoxy-3-(dimethylamino)-β-D-xylo-hexopyranosy]oxy]-1-oxa-7-azacyclopentadecan-15-one] | 1 ug/mi | 1 ug/mi | 1 ug/mi | 0.5 ug/mi | 0.5 ug/mi

Next, values leading:

Row | MIC values, Staphylococcus aureus CVCC26003 [1] | MIC values, Actinobacillus pleuropneumoniae CVCC262 [2] | MIC values, Haemophilus parasuis (Haemophilus parasuis) | MIC values, Pasteurella multocida CVCC399 [3] | MIC values, Streptococcus equines CVCC556 [4] | SMILES
7 | 0.25 ug/mi | 0.25 ug/mi | 0.25 ug/mi | 0.5 ug/mi | 0.25 ug/mi | CCCN1C[C@H](C)[C@@H](O)[C@](C)(O)[C@@H](CC)OC(=O)[C@H](C)[C@@H](O[C@H]2C[C@@](C)(OC)[C@](O)(CNCc3ccc(F)cc3F)[C@H](C)O2)[C@H](C)[C@@H](O[C@@H]2O[C@H](C)C[C@H](N(C)C)[C@H]2O)[C@](C)(O)C[C@H]1C [syzx-131]
8 | 0.25 ug/mi | 0.25 ug/mi | 0.25 ug/mi | 0.25 ug/mi | 0.25 ug/mi | CCCN1C[C@H](C)[C@@H](O)[C@](C)(O)[C@@H](CC)OC(=O)[C@H](C)[C@@H](O[C@H]2C[C@@](C)(OC)[C@](O)(CNCc3ccc(OC)cc3)[C@H](C)O2)[C@H](C)[C@@H](O[C@@H]2O[C@H](C)C[C@H](N(C)C)[C@H]2O)[C@](C)(O)C[C@H]1C [syzx-118]
9 | 2 ug/mi | 4 ug/mi | 4 ug/mi | 2 ug/mi | 0.25 ug/mi | CCCN1C[C@H](C)[C@@H](O)[C@](C)(O)[C@@H](CC)OC(=O)[C@H](C)[C@@H](O[C@H]2C[C@@](C)(OC)[C@](O)(CNCCOC)[C@H](C)O2)[C@H](C)[C@@H](O[C@@H]2O[C@H](C)C[C@H](N(C)C)[C@H]2O)[C@](C)(O)C[C@H]1C [syzx-158]
10 | 1 ug/mi | 1 ug/mi | 2 ug/mi | 1 ug/mi | 0.5 ug/mi | CC[C@H]1OC(=O)[C@H](C)[C@@H](O[C@H]2C[C@@](C)(OC)[C@](O)(CNCCc3c[nH]c4ccccc34)[C@H](C)O2)[C@H](C)[C@@H](O[C@@H]2O[C@H](C)C[C@H](N(C)C)[C@H]2O)[C@](C)(O)C[C@@H](C)NC[C@H](C)[C@@H](O)[C@]1(C)O [syzx-74, (2R,3S,4R,5S,8R,10R,11R,12S,13S,14R)-13-[(2,6-dideoxy-3-C-methyl-3-O-methyl-4-C-{[2-(1H-indol-3-yl)-ethylamino]-methyl}-α-L-ribopyranosyl)oxy]-2-ethyl-3,4,10-trihydroxy-3,5,8,10,12,14-hexamethyl-11-[[3,4,6-trideoxy-3-(dimethylamino)-β-D-xylo-hexopyranosy]oxy]-1-oxa-7-azacyclopentadecan-15-one]

Source: patent publication US9765105B2, “Macrolide compound” (Pulike Biological Engineering, Inc., priority 2013, dated 2017)
